Reference: patent US20240051958A1, “DIACYLGLYCEROL KINASE (DGK) ALPHA INHIBITORS AND USES THEREOF” (priority 2022, published 2024)
pIC50: −log10 of the molar value.

Columns and labels:
DGKA = DGKA (Homo sapiens (Human), UniProt P23743); assay: DGKA Inhibition ADP-Glo Assay; format: biochemical; conditions: 40 μM ATP, 200 μM DLG in substrate working solution, 25° C., 60 min
Procedure: The DGKA inhibition reactions were performed using ADP-Glo assay. The reactions were carried out in 50 mM HEPES, 100 mM NaCl, 10 mM MgCl2, 1 mM CaCl2, 0.005% TritonX-100 and 1 mM DTT as working solution (pH=7.5). 30 nL DMSO solution of each test compound (Top concentration 0.4 μM with 10 point, 4-fold dilution series for each compound) were transferred to 384 well plate by Echo and 5 μL DGKA (SignalChem, D21-10BG) enzyme working solution at 2×final reaction concentration was added to each well. After incubated at 25° C. for 15 minutes, 5 μL substrate working solution contain 40 μM ATP (Promega, V915B) and 200 μM DLG (SignalChem, D430-59) were added to initiate reaction. After enzymatic reaction at 25° C. for 60 min, ADP Glo assay reagents (Promega, V9102) were added and luminescence was recorded using an EnVision following the instruction of manual. […] The IC50 value was calculated via a regression analysis of the inhibition rate.

Human Pan T cells = assay: IL-2 Release Detection Assay; format: cell-based; conditions: for Activation fold: Top activation/DMSO control; for Activation % at 100 nM: fitted curve at 100 nM/DMSO control*100%
Procedure: Add dilutions of compounds into the cells and incubate at 37° C. &5% CO2 for 24 hours. IL-2 in cell supernatant was detected by ELISA Kit (R&D, DY202). […] Top and Bottom: Plateaus in same units as Y. LogEC50: same log units as X. Activation fold: Top activation/DMSO control. Activation % at 100 nM: Activation of non-linear regression equation curve at the concentration of 100 nM/DMSO control*100%.

[1] = Pharmacokinetic Profile Evaluation (mouse PK); format: in vivo, CD-1 mice; conditions: CD-1, plasma, oral administration at 5 mg/kg
Procedure: Species and strain: CD-1 mice of SPF. Source: Sino-British SIPPR/BK Lab Animal Ltd, Shanghai. 3 mice were intravenously administrated with given compounds (Formulation: 5% DMSO+10% Solutol+85% Saline) or orally gavage administrated with given compounds (Formulation: 5% DMSO+10% Solutol+85% Saline). The blood samples were taken via cephalic vein at timepoints 0.083 h, 0.25 h, 0.5 h, 1 h, 2 h, 4 h, 8 h and 24 h after intravenous administration or at timepoints 0.25 h, 0.5 h, 1 h, 2 h, 4 h, 6 h, 8 h and 24 h after oral gavage administration, 30 μL/time point. Blood samples were placed in tubes containing K2-EDTA and stored on ice until centrifuged. The blood samples were centrifuged at 6800 g for 6 minutes at 2-8° C. within 1 h after collected and stored frozen at approximately −80° C. An aliquot of 10 μL plasma samples were protein precipitated with 200 μL MeOH in which contains 10 ng/mL Verapamil (IS). The mixture was vortexed for 1 min and centrifuged at 18000 g for 7 min. Transfer 180 μL supernatant to 96 well plates. An aliquot of 6 μL supernatant was injected for LC-MS/MS analysis by LC-MS/MS-04 (API4000) instrument. The analytical results were confirmed using quality control samples for intra-assay variation. The accuracy of >66.7% of the quality control samples should be between 80-120% of the known value(s). Standard set of parameters including Area Under the Curve (AUC(0-t) and AUC(0-∞)), elimination half-live (T1/2), maximum plasma concentration (Cmax), will be calculated using noncompartmental analysis modules in FDA certified pharmacokinetic program Phoenix WinNonlin 7.0 (Pharsight, USA).

Chain of DGKA (P23743 whole entry): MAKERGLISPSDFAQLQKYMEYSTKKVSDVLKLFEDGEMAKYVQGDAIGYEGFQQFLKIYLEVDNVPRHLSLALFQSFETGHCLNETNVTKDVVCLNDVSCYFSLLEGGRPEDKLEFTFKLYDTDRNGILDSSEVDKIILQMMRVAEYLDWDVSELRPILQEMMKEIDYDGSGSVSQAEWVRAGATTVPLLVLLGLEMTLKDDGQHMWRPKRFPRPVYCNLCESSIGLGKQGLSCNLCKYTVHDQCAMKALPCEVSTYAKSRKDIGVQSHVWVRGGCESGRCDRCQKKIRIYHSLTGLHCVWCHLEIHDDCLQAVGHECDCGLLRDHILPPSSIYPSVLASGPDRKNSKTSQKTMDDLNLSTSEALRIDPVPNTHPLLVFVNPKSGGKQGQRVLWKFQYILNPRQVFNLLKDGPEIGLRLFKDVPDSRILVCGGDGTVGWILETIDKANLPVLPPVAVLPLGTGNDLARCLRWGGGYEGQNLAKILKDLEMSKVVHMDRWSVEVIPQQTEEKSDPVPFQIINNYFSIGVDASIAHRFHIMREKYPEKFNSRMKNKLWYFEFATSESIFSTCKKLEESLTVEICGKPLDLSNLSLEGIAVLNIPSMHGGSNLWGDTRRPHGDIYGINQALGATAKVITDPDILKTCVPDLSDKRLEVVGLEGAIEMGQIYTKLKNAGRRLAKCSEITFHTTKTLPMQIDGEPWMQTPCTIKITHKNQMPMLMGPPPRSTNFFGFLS

## Cc1ccc2oc(C3CCN(c4cc(=O)n(C)c5ccc(C#N)nc45)CC3)nc2c1 [Example 1, 5-methyl-8-(4-(5-methylbenzo[d]oxazol-2-yl)piperidin-1-yl)-6-oxo-5,6-dihydro-1,5-naphthyridine-2-carbonitrile]
DGKA
  pIC50: 8.70
Human Pan T cells
  Activation fold: 17.7
  Activation % at 100 nM: 416%
[1]
  AUC(0-inf): 6.15 µg·h/mL
  AUC(0-t): 5.98 µg·h/mL
  Cmax: 1.89 µg/mL
  half-life: 1.46 h

## Cn1c(=O)cc(N2CCC(c3nc4cc(F)ccc4o3)CC2)c2nc(C#N)ccc21 [Example 12, 8-(4-(5-fluorobenzo[d]oxazol-2-yl)piperidin-1-yl)-5-methyl-6-oxo-5,6-dihydro-1,5-naphthyridine-2-carbonitrile]
DGKA
  pIC50: 8.87
Human Pan T cells
  Activation fold: 8.5
  Activation % at 100 nM: 340%
[1]
  AUC(0-inf): 5.94 µg·h/mL
  AUC(0-t): 5.46 µg·h/mL
  Cmax: 1.1 µg/mL
  half-life: 3.56 h

## Cc1ccc2oc(C3CCN(c4cc(=O)n(C)c5cc(OCCO)c(C#N)nc45)CC3)nc2c1 [Example 23, 3-(2-hydroxyethoxy)-5-methyl-8-(4-(5-methylbenzo[d]oxazol-2-yl)piperidin-1-yl)-6-oxo-5,6-dihydro-1,5-naphthyridine-2-carbonitrile]
DGKA
  pIC50: 9.57
Human Pan T cells
  Activation fold: 24.5
  Activation % at 100 nM: 931%
[1]
  AUC(0-inf): 12.1 µg·h/mL
  AUC(0-t): 12 µg·h/mL
  Cmax: 1.82 µg/mL
  half-life: 3.51 h

## Cc1ccc2oc(C3CCN(c4cc(=O)n(C)c5cc(O[C@@H]6CCOC6)c(C#N)nc45)CC3)nc2c1 [Example 28, (R)-5-methyl-8-(4-(5-methylbenzo[d]oxazol-2-yl)piperidin-1-yl)-6-oxo-3-((tetrahydrofuran-3-yl)oxy)-5,6-dihydro-1,5-naphthyridine-2-carbonitrile]
DGKA
  pIC50: 9.85
[1]
  AUC(0-inf): 3.46 µg·h/mL
  AUC(0-t): 3.41 µg·h/mL
  Cmax: 0.677 µg/mL
  half-life: 2.67 h
